In US9067914B1, “Tropomyosin-related kinase (TRK) inhibitors” (Genzyme Corporation, priority 2013, dated 2015) one finds IC50 data, which are given here for 20 compounds.

Broadly, the IC50 is the concentration that gives 50% inhibition.

The target in one assay is TrkA (Homo sapiens (Human), UniProt P04629). The experiment in a line: TrkA activity, off-chip mobility shift assay (LabChip 3000). In kind it is biochemical. The note with it: 55 μM ATP (ATP Km); n/d = none detected. The text has this:
(§1) Reagents and consumables were purchased from Sigma Aldrich, Carna Biosciences, or Caliper Life Sciences. All assay reaction conditions for IC50 determinations were within the linear range with respect to time and enzyme concentration. […] The LabChip 3000 separates and measures the fluorescent signal of fluorescein labeled peptide substrate and fluorescein labeled peptide product present in each well. Results are expressed as percent conversion by measuring peak height for both the substrate and product and dividing the product peak height by the sum of peak heights for both substrate and product.

The target of another assay is TrkB (Homo sapiens (Human), UniProt Q16620). The experiment in a line: TrkB activity, off-chip mobility shift assay (LabChip 3000). To be noted: 70 μM ATP (ATP Km); n/d = none detected. In kind it is biochemical.
Text: as §1

Structures can show the parent of a compound that is named as a salt.

TrkB, sequence (Q16620 32-822): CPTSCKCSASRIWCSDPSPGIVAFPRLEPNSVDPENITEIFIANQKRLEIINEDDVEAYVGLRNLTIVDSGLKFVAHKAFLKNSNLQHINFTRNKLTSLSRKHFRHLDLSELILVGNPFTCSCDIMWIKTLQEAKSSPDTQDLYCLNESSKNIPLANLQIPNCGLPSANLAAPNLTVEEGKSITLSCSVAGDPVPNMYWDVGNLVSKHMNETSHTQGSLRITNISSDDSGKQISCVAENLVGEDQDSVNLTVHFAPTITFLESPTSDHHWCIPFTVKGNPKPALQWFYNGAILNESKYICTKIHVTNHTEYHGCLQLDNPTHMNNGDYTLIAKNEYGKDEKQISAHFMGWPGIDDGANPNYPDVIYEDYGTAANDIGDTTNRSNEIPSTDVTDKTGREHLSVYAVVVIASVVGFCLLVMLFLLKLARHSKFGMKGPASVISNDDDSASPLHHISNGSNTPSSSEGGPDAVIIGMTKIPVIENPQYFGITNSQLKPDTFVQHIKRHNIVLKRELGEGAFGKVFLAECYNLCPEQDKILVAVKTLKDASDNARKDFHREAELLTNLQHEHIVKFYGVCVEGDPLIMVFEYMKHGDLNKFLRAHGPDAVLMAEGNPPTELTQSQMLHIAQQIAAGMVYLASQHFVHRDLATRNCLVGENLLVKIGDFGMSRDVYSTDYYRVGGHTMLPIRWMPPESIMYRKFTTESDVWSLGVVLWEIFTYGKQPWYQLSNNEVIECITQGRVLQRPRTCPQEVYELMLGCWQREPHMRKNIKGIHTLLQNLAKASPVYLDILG
TrkA, sequence (P04629 33-796): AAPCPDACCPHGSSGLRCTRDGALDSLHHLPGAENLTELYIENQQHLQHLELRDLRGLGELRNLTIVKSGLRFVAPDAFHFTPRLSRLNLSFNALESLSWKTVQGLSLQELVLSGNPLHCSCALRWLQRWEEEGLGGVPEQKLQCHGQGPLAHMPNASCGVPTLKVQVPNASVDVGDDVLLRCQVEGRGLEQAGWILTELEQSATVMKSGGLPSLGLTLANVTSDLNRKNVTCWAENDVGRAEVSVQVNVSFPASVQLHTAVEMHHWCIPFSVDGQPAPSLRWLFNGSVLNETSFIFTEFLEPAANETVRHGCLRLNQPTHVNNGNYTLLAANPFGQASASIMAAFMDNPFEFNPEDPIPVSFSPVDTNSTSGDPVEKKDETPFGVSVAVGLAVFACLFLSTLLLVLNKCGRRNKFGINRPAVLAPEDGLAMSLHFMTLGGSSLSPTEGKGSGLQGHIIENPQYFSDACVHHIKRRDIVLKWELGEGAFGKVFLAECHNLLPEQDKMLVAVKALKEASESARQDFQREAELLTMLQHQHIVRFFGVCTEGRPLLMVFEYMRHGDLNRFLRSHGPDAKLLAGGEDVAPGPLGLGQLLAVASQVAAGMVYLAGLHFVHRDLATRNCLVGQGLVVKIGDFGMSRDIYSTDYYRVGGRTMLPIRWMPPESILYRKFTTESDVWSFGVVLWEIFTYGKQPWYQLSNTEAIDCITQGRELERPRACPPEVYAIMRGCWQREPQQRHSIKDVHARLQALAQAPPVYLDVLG

With `COc1ccc(COc2ccc(Cn3cnc4cc(N5CCOCC5)cnc43)cc2OC)cn1` [Ex. 3-18-2, 4-(3-(3-Methoxy-4-((6-methoxypyridin-3-yl)methoxy)benzyl)-3H-imidazo[4,5-b]pyridin-6-yl)morpholine], the figures for the IC50 at TrkA and at TrkB were 90 nM and 31 nM, respectively.

On to `COc1ccc(COc2ccc(Cn3c(N)nc4cc(-c5cncnc5)ccc43)cc2OC)cc1` [Ex. 3-2-1, 1-(3-Methoxy-4-((4-methoxybenzyl)oxy)benzyl)-5-(pyrimidin-5-yl)-1H-benzo[d]imidazol-2-amine], for which the concentration for half-maximal inhibition (IC50) on TrkA was 86 nM; on TrkB, 23 nM.

`COc1ccc(COc2ccc(C(C)n3c(N)nc4cc(-c5ccc(F)cc5)ccc43)cc2OC)cn1` (centres unmarked) [Ex. 3-46, 5-(4-fluorophenyl)-1-(1-(3-methoxy-4-((6-methoxypyridin-3-yl)methoxy)phenyl)ethyl)-1H-benzo[d]imidazol-2-amine]: the values for the half-maximal inhibitory concentration (IC50) on TrkA and at TrkB were 85 nM and 37 nM, respectively.

Consider `COc1ccc(COc2ccc(Cn3c(N)nc4cc(C#CCCO)cnc43)cc2OC)cn1` [Ex. 3-42, 4-(2-amino-3-(3-methoxy-4-((6-methoxypyridin-3-yl)methoxy)benzyl)-3H-imidazo[4,5-b]pyridin-6-yl)but-3-yn-1-ol], for which the half-maximal inhibitory concentration (IC50) at TrkA stood at 7 nM; on TrkB it was 3 nM.

As to `COc1cc([C@H](C)n2c(N)nc3cc(-c4cnn(C)c4)cnc32)ccc1OCc1ccc(C(F)(F)F)cc1` (single isomer, unassigned) [Ex. 3-49-6a, 3-(1-(3-methoxy-4-((4-(trifluoromethyl)benzyl)oxy)phenyl)ethyl)-6-(1-methyl-1H-pyrazol-4-yl)-3H-imidazo[4,5-b]pyridin-2-amine], the 50% inhibitory concentration (IC50) at TrkA was determined as 0.3 nM.

For the compound `COc1cc2c(cn1)C(Oc1ccc(Cn3c(N)nc4cc(-c5cnn(C)c5)cnc43)cc1OC)CCC2` (centres unmarked) [Ex. 3-44, 3-(3-methoxy-4-((3-methoxy-5,6,7,8-tetrahydroisoquinolin-8-yl)oxy)benzyl)-6-(1-methyl-1H-pyrazol-4-yl)-3H-imidazo[4,5-b]pyridin-2-amine], the results for the IC50 at TrkA and at TrkB were 39 nM and 41 nM, respectively.

`CCC(Oc1ccc(Cn2c(N)nc3cc(-c4cnn(C)c4)cnc32)cc1OC)c1ccc(OC)nc1` (centres unmarked) [3-34, 3-(3-methoxy-4-(1-(6-methoxypyridin-3-yl)propoxy)benzyl)-6-(1-methyl-1H-pyrazol-4-yl)-3H-imidazo[4,5-b]pyridin-2-amine]: the half-maximal inhibitory concentration (IC50) at TrkA was 32 nM; at TrkB, 26 nM.

Consider `COc1ccc(COc2ccc(Cn3cnc4cc(N5CCC(N)CC5)ccc43)cc2OC)cn1` [Ex. 3-12, 1-(1-(3-Methoxy-4-((6-methoxypyridin-3-yl)methoxy)benzyl)-1H-benzo[d]imidazol-5-yl)piperidin-4-amine], for which the IC50 at TrkA is 1030 nM; at TrkB, 637 nM.

Turning to `COc1cc([C@@H](C)n2c(N)nc3cc(-c4cnn(C)c4)cnc32)ccc1OCc1ccc(C(F)(F)F)cc1` (single isomer, unassigned) [Ex. 3-49-6b, 3-(1-(3-methoxy-4-((4-(trifluoromethyl)benzyl)oxy)phenyl)ethyl)-6-(1-methyl-1H-pyrazol-4-yl)-3H-imidazo[4,5-b]pyridin-2-amine], the IC50 on TrkA is 5 nM.

As to `COc1cc(C(C)n2cnc3cc(-c4ccc(F)cc4)ccc32)ccc1OCc1ccc(C(F)(F)F)nc1` (centres unmarked) [Ex. 3-47, 5-(4-fluorophenyl)-1-(1-(3-methoxy-4-((6-(trifluoromethyl)pyridin-3-yl)methoxy)phenyl)ethyl)-1H-benzo[d]imidazole], the IC50 at TrkA is 1240 nM; at TrkB, 427 nM.

`COc1ccc(COc2ccc(Cn3cnc4cc(N5CCC(C(C)(C)N)CC5)cnc43)cc2OC)cn1` [Ex. 3-18-1, 2-(1-(3-(3-Methoxy-4-((6-methoxypyridin-3-yl)methoxy)benzyl)-3H-imidazo[4,5-b]pyridin-6-yl)piperidin-4-yl)propan-2-amine]: the figures for the IC50 at TrkA and at TrkB were 54 nM and 57 nM, respectively.

For the compound `COc1ccc(COc2ccc(Cn3cnc4cc(C5=CC6(O)CCCN5C6)cnc43)cc2OC)cn1` (centres unmarked) [Ex. 3-32, 7-(3-(3-methoxy-4-((6-methoxypyridin-3-yl)methoxy)benzyl)-3H-imidazo[4,5-b]pyridin-6-yl)-1-azabicyclo[3.2.1]oct-6-en-5-ol], the figures for the 50% inhibitory concentration (IC50) on TrkA and at TrkB were 360 nM and 150 nM, respectively.

With `COc1cc(Cn2c(N)nc3cc(-c4cnn(C)c4)cnc32)ccc1OCc1csc(C)n1` [Ex. 3-35-5, 3-(3-methoxy-4-((2-methylthiazol-4-yl)methoxy)benzyl)-6-(1-methyl-1H-pyrazol-4-yl)-3H-imidazo[4,5-b]pyridin-2-amine], the half-maximal inhibitory concentration (IC50) worked out at 0.5 nM on TrkA and 0.2 nM on TrkB.

With `COc1ccc(C(Oc2ccc(Cn3c(N)nc4cc(-c5cnn(C)c5)cnc43)cc2OC)C2CC2)cn1` (centres unmarked) [Ex. 3-43, 3-(4-(cyclopropyl(6-methoxypyridin-3-yl)methoxy)-3-methoxybenzyl)-6-(1-methyl-1H-pyrazol-4-yl)-3H-imidazo[4,5-b]pyridin-2-amine], the IC50 at TrkA came out at 58 nM; at TrkB, 51 nM.

Regarding `COc1cc(C(C)n2cnc3cc(-c4cnn(C)c4)cnc32)ccc1OCc1ccc(C(F)(F)F)nc1` (centres unmarked) [Ex. 3-52, 3-(1-(3-methoxy-4-((6-(trifluoromethyl)pyridin-3-yl)methoxy)phenyl)ethyl)-6-(1-methyl-1H-pyrazol-4-yl)-3H-imidazo[4,5-b]pyridine], the half-inhibitory concentration (IC50) on TrkA came to 7 nM; on TrkB, 1 nM.

On to `COc1cc(Cn2c(N)nc3cc(-c4cnn(C)c4)cnc32)ccc1OCc1ccc(CC(F)(F)F)cc1` [Ex. 3-40-4, 3-(3-methoxy-4-((4-(2,2,2-trifluoroethyl)benzyl)oxy)benzyl)-6-(1-methyl-1H-pyrazol-4-yl)-3H-imidazo[4,5-b]pyridin-2-amine], for which the 50% inhibitory concentration (IC50) came out at 0.2 nM at TrkA and 0.3 nM at TrkB.

With `COc1ccc(COc2ccc(Cn3cnc4cc(N5CCC(C(C)(C)N)CC5)ccc43)cc2OC)cn1` [Ex. 3-10, 2-(1-(1-(3-Methoxy-4-((6-methoxypyridin-3-yl)methoxy)benzyl)-1H-benzo[d]imidazol-5-yl)piperidin-4-yl)propan-2-amine], the concentration for half-maximal inhibition (IC50) came to 652 nM at TrkA and 574 nM at TrkB.

In the case of `COc1ccc(COc2ccc(Cn3c(N)nc4cc(-c5cccnc5)cnc43)cc2OC)cn1` [Ex. 3-37-6, 3-(3-methoxy-4-((6-methoxypyridin-3-yl)methoxy)benzyl)-6-(pyridin-3-yl)-3H-imidazo[4,5-b]pyridin-2-amine], the IC50 on TrkA stood at 5 nM; on TrkB, 2 nM.

For `COc1ccc(COc2ccc(Cn3c(N)nc4cc(-c5cncnc5)cnc43)cc2OC)cn1` [Ex. 3-37-3, 3-(3-methoxy-4-((6-methoxypyridin-3-yl)methoxy)benzyl)-6-(pyrimidin-5-yl)-3H-imidazo[4,5-b]pyridin-2-amine], the IC50 at TrkA amounted to 51 nM; at TrkB, 16 nM.

Take `COc1ccc(C(C)Oc2ccc(Cn3cnc4cc(-c5cnn(C)c5)cnc43)cc2OC)cn1` (centres unmarked) [Ex. 3-57, 3-(3-methoxy-4-(1-(6-methoxypyridin-3-yl)ethoxy)benzyl)-6-(1-methyl-1H-pyrazol-4-yl)-3H-imidazo[4,5-b]pyridine formate]: the concentration for half-maximal inhibition (IC50) came out at 35 nM on TrkA and 13 nM at TrkB.
